A value given as a limit tells only on which side of the number the result lay.

Series [1] in a line: Chemical hydrolysis in aqueous phosphate buffer (PBS, pH 7.3). Format: physicochemical. Particulars: aqueous 25 mM phosphate buffer, pH 7.3, 37 °C; removal of AB group; n.h. = no hydrolysis observed through cleavage of AB-mask. The method, then: γ‐(AB,alkyl)‐NTP prodrugs 6 and γ‐alkyl‐NTPs 7 were incubated in aqueous phosphate buffer (PBS, 25 mM, pH 7.3), or were exposed to pig liver esterase (PLE) in phosphate buffer (PBS) and to human CD4^+ T‐lymphocyte cell extracts to study their stability and the product distribution. The hydrolysis mixtures were analyzed by means of analytical rp‐18‐HPLC. The calculated half‐lives of prodrugs 6 (Table 1, t 1/2) reflect the removal of the bioreversible AB group to yield γ‐alkyl‐NTPs 7. Possible hydrolysis pathways and products are summarized in Scheme 4.
As hydrolysis products, a predominant formation of γ‐alkyl‐d4TTPs 7 and a very small amount of d4TDP […] was detected (approximately 3 %). After consumption of the starting material, no further increase of d4TDP concentration was observed. This supports the hypothesis that only the double‐γ‐esterified d4TTP prodrugs 6 were prone to a bond breakage between the γ‐ and β‐phosphate. […] In contrast to previous studies with TriPPPro‐NTPs 5 containing a second cleavable mask (first generation NTP prodrugs),[ ^23 , ^24 , ^25 ] no d4TTP was detected in these studies using 6 or 7. A side reaction occurred during the studies using compounds 7 that led to the formation of thymine by the cleavage of the glycosidic bond as reported before.[ ^19 , ^22 ]
(§1) ProLab 300 from Schott Co.. Thermomixer: Eppendorf Thermomixer 5436 and CellMedia Thermoschüttler basic were used. […]
Chemical hydrolysis of prodrugs of γ-(AB,alkyl) d4TTP 6 as well as the γ-alkyl-NTPs 7,15:
Stock solutions (50mM in DMSO-d6) of compounds 6,7 were prepared. After dilution of 11 µL stock solution with 100 µL milliQ water and 189 µL DMSO-d6 to 1.9mM hydrolysis solutions the reaction was started by addition of 300 µL phosphate buffer saline (PBS, 50mM, pH 7.3). The solution was incubated at 37 C in a thermomixer. An initial aliquot (25 µL) was taken directly and analyzed by analytical HPLC at 265-266 nm. Further aliquots were taken for monitoring the kinetic hydrolysis. The exponential decay curves (pseudo-first order) based on absolute integral values were calculated with commercially available software (OriginPro 9.0G) and yielded the half-lives t1/2 of the prodrugs via one determination. […]
The calculation of t1/2 was performed analogously to that for the chemical hydrolysis studies.
(§2) Preparation of cell extracts: Human CD4+ T-lymphocyte CEM cells were grown in RPMI-1640-based cell culture medium to a final density of ~3·10^6 cells/ml. Then, cells were centrifuged for 10 min at 1,250 rpm at 4 °C, washed twice with cold PBS, and the pellet was re-suspended at 10^8 cells/ml and sonicated (Hielscher Ultrasound Techn., 100% amplitude, 3·times for 10 sec) to destroy cell integrity. The resulting cell suspension was then centrifuged at 10,000 rpm to remove cell debris, and the supernatant divided in aliquots before being frozen at -80 C and used.
(1 picture or pasted object on this page, not shown here)

The nature of series [2]: Enzyme-catalyzed hydrolysis in human CD4+ T-lymphocyte CEM cell extracts. Format: in vitro ADME. Conditions: CEM/0 cell extracts (CD4+ T-lymphocytes); human CD4+ T-lymphocyte CEM cell extracts, 37 °C; read-out: CEM/0 cell extracts t 1/2 (converted). How it is done:
The stability of prodrugs 6 and the γ‐alkyl‐NTPs 7 was further investigated in human CD4 ^+ T‐lymphocyte CEM cell extracts. […] Thus, an enzymatic cleavage reaction took place. Half‐lives as low as 0.4 h (6 az) to 5.2 h (6 dz) were determined. […] This is in accordance to our previous results for the DiPPro‐[ ^17 , ^18 ] or the TriPPPro‐compounds 5.[ ^22 , ^23 ] In all cases we observed the predominant formation of γ‐alkyl‐d4TTPs 7 and d4TDP 2 d in very low concentration (Figure 2 B) but no NTP formation was detected, in contrast to the studies using the previously described TriPPPro compounds 5.[ ^23 , ^24 ] However, the difference to the compounds bearing long lipophilic acyl groups was not very pronounced (2‐ to 3‐fold). In the case of γ‐(AB‐C4,alkyl‐C18)‐d4TTP 6 cz, γ‐C18‐d4TTP 7 z was detected as the main product. After 8 h incubation, the ratio of γ‐C18‐d4TTP 7 z and d4TDP 2 d was 5:1. This was in sharp contrast to the studies performed with TriPPPro compounds 5.[ ^23 , ^24 ] There, it was almost impossible to detect significant concentrations of d4TTP due to its fast dephosphorylation to form first d4TDP and finally d4TMP 2 m. […] The formation of thymine or d4TTP 2 t from γ‐C18‐d4TTP 7 z was not detected (Supporting Information, Figure SI2).
as §1
Enzyme-catalyzed hydrolysis of γ-(AB,alkyl)-d4TTPs 6, γ-alkyl-d4TTPs 7,15 and TriPPPros 5 in CEM cell extracts:
18 µL of the appropriate 50 mM DMSO-d6 stock solution was diluted to 6.0 mM hydrolysis solution by addition of 132.0 µL DMSO-d6.
7-10 different samples including 10 µL water and 10 µL hydrolysis solution were prepared in 2 mL Eppendorf® vials. The reaction was started by addition of 50 µL human CEM cell extract and the mixture was incubated at 37 °C for different time periods. The reactions were stopped by addition of 150 μL MeOH. The solution was kept on ice for 5 min followed by centrifugation for 5 min (13000 rpm).
The supernatants were filtered (Chromafil® RC-20/15 MS, 0.2 μm) and stored in liquid nitrogen. When testing, the samples were defrosted and injection volume with 80 μL was used for HPLC analysis. The calculation of t1/2 was performed analogously to that for the chemical hydrolysis studies.
as §2

Series [3] relates to HIV-1(IIIB). The series is described as follows: Anti-HIV activity assay, HIV-1-infected wild-type CEM/0 cell cultures. Format: cell-based. Conditions: Human immunodeficiency virus 1, IIIB, CCRF-CEM, read-out: EC50 CEM/0 HIV-1. The method, then:
(§3) γ‐(AB,alkyl)‐d4TTP prodrugs 6 and the γ‐alkyl‐d4TTPs 7 were evaluated for their ability to inhibit the replication of HIV in HIV‐1‐ or HIV‐2‐infected wild‐type CEM/0 as well as mutant thymidine‐kinase‐deficient CEM cell cultures (CEM/TK^−). For comparison, two TriPPPro derivatives 5 were also included in this assay.
(§4) Anti-HIV activity assay: Inhibition of HIV-1(IIIB)- and HIV-2(ROD)-induced cytopathicity in wild-type CEM/0 and thymidine kinase-deficient CEM/TK- cell cultures was measured in microtiter 96-well plates containing ~3·105 CEM cells/mL infected with 100 CCID50 of HIV per milliliter and containing appropriate dilutions of the test compounds. After 4−5 days of incubation at 37 °C in a CO2-controlled humidified atmosphere, CEM giant (syncytium) cell formation was examined microscopically. […]
(§5) was defined as the compound concentration required to inhibit HIV-induced giant cell formation by 50%. […]
(§6) The result was visualized by fluorescence imaging. […]
as §6

Series [4] relates to HIV-2(ROD). The series is described as follows: Anti-HIV activity assay, HIV-2-infected wild-type CEM/0 cell cultures. Format: cell-based. Conditions: Human immunodeficiency virus 2, CCRF-CEM, read-out: EC50 CEM/0 HIV-2. How it is done:
as §3, §4, §5, §6, §6

The test system of series [5] is HIV-2(ROD). As to the kind of experiment: Anti-HIV activity assay, HIV-2-infected thymidine-kinase-deficient CEM/TK- cell cultures. Particulars: Human immunodeficiency virus 2, CEM-TK(-), read-out: EC50 CEM/TK− HIV-2, thymidine-kinase-deficient CEM/TK− cells, HIV-2; mean±SD, n=2-3. Format: cell-based. How it is done:
as §3, §4, §5, §6, §6

The nature of series [6]: Cytotoxicity: inhibition of CD4+ T-cell (CEM) proliferation. Format: cell-based. Particulars: human, CEM/0 cells (CD4+ T-cells), 50 % cytostatic concentration, mean±SD, n=2-3.
Series [7] addresses T1, HIV reverse transcriptase (RT) (Human immunodeficiency virus type 1 group M subtype B, UniProt P03366).
T1 construct: reverse transcriptase (RT; an HIV‐encoded RNA‐dependent DNA polymerase); purchased Roboklon
As to the kind of experiment: Primer extension assay with HIV-RT. Format: biochemical, HIV-1. Particulars: incubation 10, 20, 40 and 60 min; conversion of primer to n+1 product. The method, then: Primer-extension reactions:
HIV-RT and human DNA polymerase β and γ were obtained from Roboklon, human DNA polymerase α was obtained from Chimerx.
The primers and templates were purchased from Life Technologies and Microsynth. The fluorescent labeled primer was purchased
from Metabion and Microsynth. The gels were prepared with the size of 450mm×200mm×0.4mm according to the electrophoresis
5’-FITC and 5’-Cy3 labeled Primer-sequence:
The primer extension assays were performed under the following conditions:
FITC and Cy3 labeled primer extension assay:
1) Hybridization: After 5 min incubation at 95 °C in 20 mM Tris-HCl (pH 7.6) and 50 mM NaCl, the hybridization/annealing of the
primer to the template strand was achieved by a cooling phase from 95 °C to […] lasted more than 2 hours. […]
The assays were separated using a denaturating PAGE (15%). The result was visualized by fluorescence imaging. […]
as §6, §6

For the compound `CCCCCCCCCCCOP(=O)(O)OP(=O)(O)OP(=O)(O)OCC1C=CC(n2cc(C)c(=O)[nH]c2=O)O1` (stereo not shown) [7 x, γ‐C11‐d4TTP], the “PBS pH 7.3 t 1/2” value in series [1] is “n.h.^[c]”. Besides, the half-life at 0.86 mM in series [2] was above 30 h. Further, the results for the EC50 in series [3], in series [4] and in series [5] were 0.89 ± 0.28 µM, 0.26 ± 0.083 µM and 16 ± 5 µM, respectively. The compound further returned a CC50 in series [6] of 78 ± 10 µM. Besides, the “comparison of substrate properties for HIV-RT” value in series [7] is “better substrates”.

The values are drawn from PMC7756582, “Prodrugs of γ‐Alkyl‐Modified Nucleoside Triphosphates: Improved Inhibition of HIV Reverse Transcriptase” (Angewandte Chemie (International Ed. in English), 2020).
